Reference: PMC5810560 (Chemico-biological interactions, 2017)
“And” between values parts separate entries of the source, which are not always exact repeats. Equal entries are not always repeated.

How the values were obtained:
[1] = test system: Human cerebral microvascular cells (HCMEC/D3); assay: Brain endothelial cell traversal; conditions: 100 μM in HBSS, apical to basolateral
p-gp (MDR1) = p-gp (MDR1) (Homo sapiens, UniProt P08183); assay: MDR1 efflux assessment in MDR1-MDCK and MDCK parent cells; conditions: MDR1-MDCK vs MDCK cells, 100 μM; NFR > 1 = possible p-gp substrate
[2] = Renal clearance: urine radioactivity and HPLC of urine; conditions: for percent of the administered dose in urine: guinea pig
[3] = RS194B plasma pharmacokinetics; conditions: for AUC0-t: t = 24 h
[4] = RS194B biodistribution / brain penetration in perfused tissues; conditions: for Tissue level at Cmax, percent of administered dose, Brain / Tissue level at Cmax, percent of administered dose, Heart / Tissue level at Cmax, percent of administered dose, Kidney / Tissue level at Cmax, percent of administered dose, Liver / Tissue level at Cmax, percent of administered dose, Lung / Tissue level at Cmax, percent of administered dose, Spleen: total tissue weight
[5] = mice dosed with 80 mg/kg; ref Radic et al., 2012; cited from earlier work
[6] = Parallel artificial membrane permeability assay; conditions: 100 μM in HBSS
[7] = dose increase from 10 to 200 mg/kg (20-fold), IV
[8] = guinea pig plasma, single IM dose 50 mg/kg
[9] = guinea pig plasma, single IV dose 10 mg/kg
[10] = guinea pig plasma, single IV dose 50 mg/kg
[11] = guinea pig plasma, single IV dose 100 mg/kg
[12] = guinea pig plasma, single IV dose 200 mg/kg
[13] = guinea pig, after IV administration, post dose

Sequence of p-gp (MDR1) (P08183 whole entry, looked up): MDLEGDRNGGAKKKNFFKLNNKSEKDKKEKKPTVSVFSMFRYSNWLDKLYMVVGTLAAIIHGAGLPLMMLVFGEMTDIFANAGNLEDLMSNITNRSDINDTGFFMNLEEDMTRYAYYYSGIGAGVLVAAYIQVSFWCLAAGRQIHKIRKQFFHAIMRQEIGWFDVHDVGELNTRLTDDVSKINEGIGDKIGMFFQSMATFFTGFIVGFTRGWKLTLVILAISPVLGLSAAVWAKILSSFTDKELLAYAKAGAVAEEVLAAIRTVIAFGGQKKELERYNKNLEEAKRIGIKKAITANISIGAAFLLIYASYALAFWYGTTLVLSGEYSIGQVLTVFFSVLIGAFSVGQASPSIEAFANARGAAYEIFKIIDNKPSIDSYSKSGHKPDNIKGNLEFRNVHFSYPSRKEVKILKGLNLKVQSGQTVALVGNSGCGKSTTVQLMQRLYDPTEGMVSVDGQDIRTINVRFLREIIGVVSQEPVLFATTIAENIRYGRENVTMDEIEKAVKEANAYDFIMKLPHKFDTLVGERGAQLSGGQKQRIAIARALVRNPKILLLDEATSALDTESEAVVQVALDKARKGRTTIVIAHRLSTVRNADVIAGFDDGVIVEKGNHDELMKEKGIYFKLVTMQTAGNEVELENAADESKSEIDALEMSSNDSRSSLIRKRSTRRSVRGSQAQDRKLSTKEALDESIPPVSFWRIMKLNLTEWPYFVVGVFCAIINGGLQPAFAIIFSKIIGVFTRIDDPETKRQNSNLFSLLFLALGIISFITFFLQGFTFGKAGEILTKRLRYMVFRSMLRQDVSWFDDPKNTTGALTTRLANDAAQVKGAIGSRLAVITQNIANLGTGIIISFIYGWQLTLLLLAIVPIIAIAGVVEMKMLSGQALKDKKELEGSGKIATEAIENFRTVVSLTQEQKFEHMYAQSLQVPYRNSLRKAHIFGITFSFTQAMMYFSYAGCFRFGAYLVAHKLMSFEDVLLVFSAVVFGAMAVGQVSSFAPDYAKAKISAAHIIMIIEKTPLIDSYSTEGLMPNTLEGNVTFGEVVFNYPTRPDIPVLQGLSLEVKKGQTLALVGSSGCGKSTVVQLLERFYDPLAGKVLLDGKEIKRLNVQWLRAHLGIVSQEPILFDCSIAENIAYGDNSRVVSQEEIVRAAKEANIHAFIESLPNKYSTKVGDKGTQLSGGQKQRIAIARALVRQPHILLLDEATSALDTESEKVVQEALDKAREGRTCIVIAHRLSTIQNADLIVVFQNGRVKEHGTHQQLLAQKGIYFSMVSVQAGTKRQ

O=C(C=NO)NCCN1CCCCCC1 [RS194B]
permeability across HCMEC/D3 monolayer relative to controls [1]: permeability was improved over that of 2-PAM, but was lower than that of a known permeable compound
net flux ratio (NFR) (p-gp (MDR1)): ≤ 1
radioactivity recovered in the urine ([2]; first 4 h post dose, three highest dose concentrations): over 60%
metabolic stability (HPLC of 0-4 h urine) ([2]; guinea pig urine, one radioactive peak matching RS194B standard): metabolically stable
percent of the administered dose in urine ([2]; IV 10 mg/kg, first 24 h): 11-28%
percent of the administered dose in urine ([2]; IV 50 mg/kg, first 24 hr post dose): 49-77%
percent of the administered dose in urine ([2]; IV 100 mg/kg, first 24 hr post dose): 46-68%
percent of the administered dose in urine ([2]; IV 200 mg/kg, first 24 hr post dose): 59-79%
increase in mean AUC0-t [3, 7]: 32 fold
increase in mean C0 [3, 7]: 25 fold
power regression slope, AUC0-t vs dose ([3]; dose range 10-200 mg/kg IV): 1.13
power regression slope, C0 vs dose ([3]; dose range 10-200 mg/kg IV): 1.09
tmax ([3]; guinea pig plasma, IM 50 mg/kg): 30 min
mean apparent distribution half-life (t1/2α), range ([3]; guinea pig plasma, across four IV doses 10-200 mg/kg): 46.8 to 90 min
AUC0-inf [3, 8]: 78.74 ± 3.75 µg·h/mL
C0 [3, 8]: 24.90 ± 1.44 µg/mL
CL [3, 8]: 641.80 ± 31.32 mL/h/kg
T1/2;β [3, 8]: 8.53 ± 1.49 h
Vd [3, 8]: 7729 ± 1088.99 mL/kg
t1/2α [3, 8]: 52.2 ± 7.8 min
AUC0-t [3, 8]: 73.50 ± 2.41 µg·h/mL
AUC0-inf [3, 9]: 17.53 ± 1.35 µg·h/mL
C0 [3, 9]: 6.23 ± 0.15 µg/mL
CL [3, 9]: 590.51 ± 51.87 mL/h/kg
T1/2;β [3, 9]: 10.41 ± 1.54 h
Vd [3, 9]: 8675.15 ± 1999.77 mL/kg
t1/2α [3, 9]: 47.4 ± 4.2 min
AUC0-t [3, 9]: 15.27 ± 1.23 µg·h/mL
C0 [3, 10]: 42.77 ± 2.5 µg/mL
CL [3, 10]: 546.65 ± 27.44 mL/h/kg
T1/2;β [3, 10]: 10.68 ± 1.94 h
Vd [3, 10]: 8378.18 ± 1448.68 mL/kg
t1/2α [3, 10]: 61.8 ± 16.8 min
AUC0-t [3, 10]: 83.80 ± 4.05 µg·h/mL
AUC0-inf [3, 11]: 223.60 ± 14.56 µg·h/mL
C0 [3, 11]: 93.18 ± 3.4 µg/mL
CL [3, 11]: 455.89 ± 26.85 mL/h/kg
T1/2;β [3, 11]: 12.87 ± 2.16 h
Vd [3, 11]: 8322.03 ± 1442.65 mL/kg
t1/2α [3, 11]: 46.8 ± 3 min
AUC0-t [3, 11]: 188.05 ± 11.10 µg·h/mL
AUC0-inf [3, 12]: 530.83 ± 57.86 µg·h/mL
C0 [3, 12]: 157.66 ± 4.34 µg/mL
CL [3, 12]: 400.51 ± 44.01 mL/h/kg
T1/2;β [3, 12]: 9.75 ± 1.83 h
Vd [3, 12]: 5802.08 ± 1329.87 mL/kg
t1/2α [3, 12]: 90 ± 12 min
AUC0-t [3, 12]: 488.52 ± 63.16 µg·h/mL
plasma t1/2 ([3]; guinea pig, as summarised in abstract): ~1 h
brain/ plasma ([4]; guinea pig, IM 50 mg/kg, 0.08 hr (brain Cmax)): 0.058 and 0.06 ± 0.002
brain/ plasma ([4]; guinea pig, IM 50 mg/kg, 0.25 hr): 0.04 ± 0.006
brain/ plasma ([4]; guinea pig, IM 50 mg/kg, 0.5 hr): 0.03 ± 0.002
brain/ plasma ([4]; guinea pig, IM 50 mg/kg, 1 hr): 0.02 ± 0.010
brain/ plasma ([4]; guinea pig, IM 50 mg/kg, 2 hr): 0.02 ± 0.001
brain/ plasma ([4]; guinea pig, IM 50 mg/kg, 4 hr): 0.06 ± 0.005
brain/ plasma ([4]; guinea pig, IM 50 mg/kg, 8 hr): 0.08 ± 0.007
brain/ plasma ([4]; guinea pig, IM 50 mg/kg, 24 hr): 0.19 ± 0.045
Tissue level at Cmax, percent of administered dose, Brain ([4]; guinea pig, IM 50 mg/kg): 0.02 ± 0.005% of administered dose
Tissue level at Cmax, percent of administered dose, Heart ([4]; guinea pig, IM 50 mg/kg): 0.07 ± 0.02% of administered dose
Tissue level at Cmax, percent of administered dose, Kidney ([4]; guinea pig, IM 50 mg/kg): 2.87 ± 0.48% of administered dose
Tissue level at Cmax, percent of administered dose, Liver ([4]; guinea pig, IM 50 mg/kg): 7.04 ± 0.61% of administered dose
Tissue level at Cmax, percent of administered dose, Lung ([4]; guinea pig, IM 50 mg/kg): 0.67 ± 0.16% of administered dose
Tissue level at Cmax, percent of administered dose, Spleen ([4]; guinea pig, IM 50 mg/kg): 0.03 ± 0.01% of administered dose
brain-to-plasma ratio at later time points over ratio at Tmax ([4]; guinea pig, IM exposure): 3.2 times
brain/ plasma ([4]; guinea pig, IV 10 mg/kg, 0.08 hr (brain Cmax)): 0.04 ± 0.001
brain/ plasma ([4]; guinea pig, IV 10 mg/kg, 0.25 hr): 0.040 ±0.002
brain/ plasma ([4]; guinea pig, IV 10 mg/kg, 0.5 hr): 0.03 ± 0.002
brain/ plasma ([4]; guinea pig, IV 10 mg/kg, 1 hr): 0.02 ± 0.001
brain/ plasma ([4]; guinea pig, IV 10 mg/kg, 2 hr): 0.03 ± 0.003
brain/ plasma ([4]; guinea pig, IV 10 mg/kg, 4 hr): 0.05 ± 0.003
brain/ plasma ([4]; guinea pig, IV 10 mg/kg, 8 hr): 0.09 ± 0.011
brain/ plasma ([4]; guinea pig, IV 10 mg/kg, 24 hr): 0.11 ± 0.035
Tissue level at Cmax, percent of administered dose, Heart ([4]; guinea pig, IV 10 mg/kg): 0.05 ± 0.01% of administered dose
Tissue level at Cmax, percent of administered dose, Kidney ([4]; guinea pig, IV 10 mg/kg): 5.19 ± 0.23% of administered dose
Tissue level at Cmax, percent of administered dose, Liver ([4]; guinea pig, IV 10 mg/kg): 8.76 ± 0.32% of administered dose
Tissue level at Cmax, percent of administered dose, Lung ([4]; guinea pig, IV 10 mg/kg): 0.45 ± 0.04% of administered dose
Tissue level at Cmax, percent of administered dose, Spleen ([4]; guinea pig, IV 10 mg/kg): 0.04 ± 0.01% of administered dose
Tissue level at Cmax, percent of administered dose, Brain ([4]; guinea pig, IV 10 mg/kg, 10 mg/kg): 0.03% of administered dose and 0.03 ± 0.002% of administered dose
brain/ plasma ([4]; guinea pig, IV 50 mg/kg, 0.08 hr (brain Cmax)): 0.09 ± 0.006
brain/ plasma ([4]; guinea pig, IV 50 mg/kg, 0.25 hr): 0.08 ± 0.005
brain/ plasma ([4]; guinea pig, IV 50 mg/kg, 0.5 hr): 0.05 ± 0.003
brain/ plasma ([4]; guinea pig, IV 50 mg/kg, 1 hr): 0.03 ± 0.014
brain/ plasma ([4]; guinea pig, IV 50 mg/kg, 2 hr): 0.03 ± 0.002
brain/ plasma ([4]; guinea pig, IV 50 mg/kg, 4 hr): 0.07 ± 0.004
brain/ plasma ([4]; guinea pig, IV 50 mg/kg, 8 hr): 0.07 ± 0.009
brain/ plasma ([4]; guinea pig, IV 50 mg/kg, 24 hr): 0.18 ± 0.062
Tissue level at Cmax, percent of administered dose, Brain ([4]; guinea pig, IV 50 mg/kg): 0.09 ± 0.01% of administered dose
Tissue level at Cmax, percent of administered dose, Heart ([4]; guinea pig, IV 50 mg/kg): 0.06 ± 0.01% of administered dose
Tissue level at Cmax, percent of administered dose, Kidney ([4]; guinea pig, IV 50 mg/kg): 5.16 ± 0.52% of administered dose
Tissue level at Cmax, percent of administered dose, Liver ([4]; guinea pig, IV 50 mg/kg): 8.60 ± 0.48% of administered dose
Tissue level at Cmax, percent of administered dose, Lung ([4]; guinea pig, IV 50 mg/kg): 0.95 ± 0.12% of administered dose
Tissue level at Cmax, percent of administered dose, Spleen ([4]; guinea pig, IV 50 mg/kg): 0.08 ± 0.01% of administered dose
brain/ plasma ([4]; guinea pig, IV 100 mg/kg, 0.08 hr (brain Cmax)): 0.12 ± 0.006
brain/ plasma ([4]; guinea pig, IV 100 mg/kg, 0.25 hr): 0.10 ± 0.008
brain/ plasma ([4]; guinea pig, IV 100 mg/kg, 0.5 hr): 0.12 ± 0.007
brain/ plasma ([4]; guinea pig, IV 100 mg/kg, 1 hr): 0.05 ± 0.001
brain/ plasma ([4]; guinea pig, IV 100 mg/kg, 2 hr): 0.05 ± 0.005
brain/ plasma ([4]; guinea pig, IV 100 mg/kg, 4 hr): 0.08 ± 0.005
brain/ plasma ([4]; guinea pig, IV 100 mg/kg, 8 hr): 0.08 ± 0.010
brain/ plasma ([4]; guinea pig, IV 100 mg/kg, 24 hr): 0.06 ± 0.008
Tissue level at Cmax, percent of administered dose, Brain ([4]; guinea pig, IV 100 mg/kg): 0.11 ± 0.01% of administered dose
Tissue level at Cmax, percent of administered dose, Heart ([4]; guinea pig, IV 100 mg/kg): 0.05 ± 0.01% of administered dose
Tissue level at Cmax, percent of administered dose, Kidney ([4]; guinea pig, IV 100 mg/kg): 3.81 ± 0.42% of administered dose
Tissue level at Cmax, percent of administered dose, Liver ([4]; guinea pig, IV 100 mg/kg): 8.32 ± 0.42% of administered dose
Tissue level at Cmax, percent of administered dose, Lung ([4]; guinea pig, IV 100 mg/kg): 0.77 ± 0.04% of administered dose
Tissue level at Cmax, percent of administered dose, Spleen ([4]; guinea pig, IV 100 mg/kg): 0.07 ± 0.01% of administered dose
brain/ plasma ([4]; guinea pig, IV 200 mg/kg, 0.08 hr (brain Cmax)): 0.18 ± 0.013
brain/ plasma ([4]; guinea pig, IV 200 mg/kg, 0.25 hr): 0.19 ± 0.012
brain/ plasma ([4]; guinea pig, IV 200 mg/kg, 0.5 hr): 0.27 ± 0.080
brain/ plasma ([4]; guinea pig, IV 200 mg/kg, 1 hr): 0.15 ± 0.028
brain/ plasma ([4]; guinea pig, IV 200 mg/kg, 2 hr): 0.08 ± 0.009
brain/ plasma ([4]; guinea pig, IV 200 mg/kg, 4 hr): 0.08 ± 0.005
brain/ plasma ([4]; guinea pig, IV 200 mg/kg, 8 hr): 0.12 ± 0.010
brain/ plasma ([4]; guinea pig, IV 200 mg/kg, 24 hr): 0.22 ± 0.071
Tissue level at Cmax, percent of administered dose, Heart ([4]; guinea pig, IV 200 mg/kg): 0.08 ± 0.01% of administered dose
Tissue level at Cmax, percent of administered dose, Kidney ([4]; guinea pig, IV 200 mg/kg): 3.65 ± 0.48% of administered dose
Tissue level at Cmax, percent of administered dose, Liver ([4]; guinea pig, IV 200 mg/kg): 5.25 ± 0.32% of administered dose
Tissue level at Cmax, percent of administered dose, Lung ([4]; guinea pig, IV 200 mg/kg): 0.85 ± 0.04% of administered dose
Tissue level at Cmax, percent of administered dose, Spleen ([4]; guinea pig, IV 200 mg/kg): 0.12 ± 0.01% of administered dose
Tissue level at Cmax, percent of administered dose, Brain ([4]; guinea pig, IV 200 mg/kg, 200 mg/kg): 0.18% of administered dose and 0.18 ± 0.01% of administered dose
time of tissue Cmax, all tissues except the liver [4, 13]: 5 to 15 min
time of tissue Cmax, liver [4, 13]: 30 min
heart, percent of the administered dose at Cmax ([4]; mean over the dose range, IV): 0.06%
all other tissues, percent of the administered dose at Cmax ([4]; tissues other than liver and kidney, IV): less than 1%
brain/plasma ratio [5]: 0.3
effective permeability (Peff), PAMPA ([6]; five hours, 25°C, vs threshold for moderate permeability): < 2e-06 cm/s
PAMPA diffusion relative to controls ([6]; vs 2-PAM and diazepam positive control): increased diffusion relative to the 2-PAM standard of care, rate of permeation was dramatically lower than the diazepam positive control
